Where “and” joins values, the source holds several entries; their conditions need not be identical. Equal values may be shown once.
Settings: Liquid, Vibrating tube method

CCCCCC(=O)OCC(COC(=O)CCCCC)(COC(=O)CCCCC)COC(=O)CCCCC [pentaerythritol tetrahexanoate]
Settings | mass density
303.15 K, 32445 kPa | 1007.6 kg/m3
303.15 K, 32464 kPa | 1007.7 kg/m3
303.15 K, 32483 kPa | 1007.6 kg/m3
303.15 K, 32506 kPa | 1007.5 kg/m3
303.15 K, 32525 kPa | 1007.6 kg/m3
303.15 K, 32544 kPa | 1007.5 kg/m3
303.15 K, 32567 kPa | 1007.6 kg/m3
303.15 K, 32586 kPa | 1007.6 kg/m3
303.15 K, 32605 kPa | 1007.7 kg/m3
303.15 K, 32624 kPa | 1007.6 kg/m3
303.15 K, 32647 kPa | 1007.7 kg/m3
303.15 K, 32808 kPa | 1007.7 kg/m3
303.15 K, 32832 kPa | 1007.7 kg/m3
303.15 K, 32851 kPa | 1007.8 kg/m3
303.15 K, 32871 kPa | 1007.7 kg/m3
303.15 K, 32895 kPa | 1007.8 kg/m3
303.15 K, 33911 kPa | 1008.4 kg/m3
303.15 K, 33938 kPa | 1008.4 kg/m3
303.15 K, 33963 kPa | 1008.4 kg/m3
303.15 K, 33989 kPa | 1008.3 kg/m3
303.15 K, 34002 kPa | 1008.3 kg/m3
303.15 K, 34011 kPa | 1008.3 kg/m3
303.15 K, 34016 kPa | 1008.3 kg/m3
303.15 K, 34028 kPa | 1008.4 kg/m3
303.15 K, 34041 kPa | 1008.4 kg/m3
303.15 K, 34057 kPa | 1008.4 kg/m3
303.15 K, 34070 kPa | 1008.3 kg/m3
303.15 K, 34166 kPa | 1008.4 kg/m3
303.15 K, 34178 kPa | 1008.6 kg/m3
303.15 K, 34182 kPa | 1008.4 kg/m3
303.15 K, 34186 kPa | 1008.5 kg/m3
303.15 K, 34190 kPa | 1008.5 kg/m3
303.15 K, 34194 kPa | 1008.5 kg/m3
303.15 K, 34195 kPa | 1008.6 kg/m3
303.15 K, 34196 kPa | 1008.5 kg/m3 and 1008.4 kg/m3
303.15 K, 34197 kPa | 1008.5 kg/m3
303.15 K, 34198 kPa | 1008.4 kg/m3
303.15 K, 34425 kPa | 1008.7 kg/m3
303.15 K, 34426 kPa | 1008.6 kg/m3
303.15 K, 34427 kPa | 1008.6 kg/m3
303.15 K, 34428 kPa | 1008.6 kg/m3
303.15 K, 34430 kPa | 1008.8 kg/m3 and 1008.6 kg/m3
303.15 K, 34431 kPa | 1008.7 kg/m3
303.15 K, 34432 kPa | 1008.8 kg/m3
303.15 K, 34434 kPa | 1008.7 kg/m3 and 1008.6 kg/m3
303.16 K, 193.7 kPa | 988.5 kg/m3 and 988.4 kg/m3
303.16 K, 193.9 kPa | 988.4 kg/m3
303.16 K, 194.1 kPa | 988.5 kg/m3 and 988.4 kg/m3
303.16 K, 194.3 kPa | 988.6 kg/m3 and 988.4 kg/m3
303.16 K, 194.4 kPa | 988.6 kg/m3
303.16 K, 195.5 kPa | 988.4 kg/m3
303.16 K, 195.6 kPa | 988.5 kg/m3
303.16 K, 195.7 kPa | 988.5 kg/m3
303.16 K, 196.9 kPa | 988.5 kg/m3
303.16 K, 197.4 kPa | 988.5 kg/m3 and 988.4 kg/m3
303.16 K, 197.6 kPa | 988.4 kg/m3
303.16 K, 197.7 kPa | 988.5 kg/m3
303.16 K, 198.1 kPa | 988.5 kg/m3
303.16 K, 199.6 kPa | 988.5 kg/m3
303.16 K, 200 kPa | 988.5 kg/m3
303.16 K, 200.2 kPa | 988.6 kg/m3
303.16 K, 200.3 kPa | 988.4 kg/m3
303.16 K, 200.5 kPa | 988.5 kg/m3
303.16 K, 200.7 kPa | 988.4 kg/m3
303.16 K, 201 kPa | 988.5 kg/m3
303.16 K, 201.2 kPa | 988.5 kg/m3
303.16 K, 201.4 kPa | 988.6 kg/m3 and 988.3 kg/m3
303.16 K, 201.6 kPa | 988.4 kg/m3
303.16 K, 201.9 kPa | 988.5 kg/m3
303.16 K, 202.2 kPa | 988.5 kg/m3
303.16 K, 202.8 kPa | 988.5 kg/m3
303.16 K, 202.9 kPa | 988.5 kg/m3
303.16 K, 204.2 kPa | 988.5 kg/m3
303.16 K, 207.1 kPa | 988.5 kg/m3
303.16 K, 207.3 kPa | 988.5 kg/m3
303.16 K, 207.8 kPa | 988.4 kg/m3
303.16 K, 208 kPa | 988.5 kg/m3
303.16 K, 208.2 kPa | 988.5 kg/m3
303.16 K, 209 kPa | 988.5 kg/m3
303.16 K, 209.2 kPa | 988.5 kg/m3
303.16 K, 209.5 kPa | 988.6 kg/m3
303.16 K, 209.7 kPa | 988.4 kg/m3
303.16 K, 211.5 kPa | 988.5 kg/m3
303.16 K, 211.8 kPa | 988.5 kg/m3
303.16 K, 212.7 kPa | 988.4 kg/m3 and 988.5 kg/m3
303.16 K, 212.9 kPa | 988.5 kg/m3
303.16 K, 219.3 kPa | 988.6 kg/m3
303.16 K, 220.1 kPa | 988.5 kg/m3
303.16 K, 220.8 kPa | 988.6 kg/m3
303.16 K, 221.2 kPa | 988.6 kg/m3 and 988.4 kg/m3 and 988.5 kg/m3
303.16 K, 221.4 kPa | 988.6 kg/m3
303.16 K, 221.5 kPa | 988.6 kg/m3
303.16 K, 221.9 kPa | 988.5 kg/m3
303.16 K, 222.2 kPa | 988.6 kg/m3
303.16 K, 222.4 kPa | 988.5 kg/m3
303.16 K, 222.8 kPa | 988.6 kg/m3
303.16 K, 223.1 kPa | 988.5 kg/m3 and 988.4 kg/m3
303.16 K, 223.3 kPa | 988.4 kg/m3
303.16 K, 223.6 kPa | 988.5 kg/m3
303.16 K, 223.8 kPa | 988.6 kg/m3
303.16 K, 224 kPa | 988.4 kg/m3
303.16 K, 224.1 kPa | 988.6 kg/m3
303.16 K, 224.5 kPa | 988.4 kg/m3
303.16 K, 225 kPa | 988.6 kg/m3
303.16 K, 225.2 kPa | 988.4 kg/m3
303.16 K, 225.7 kPa | 988.5 kg/m3
303.16 K, 226 kPa | 988.4 kg/m3
303.16 K, 226.6 kPa | 988.4 kg/m3 and 988.6 kg/m3
303.16 K, 227.1 kPa | 988.5 kg/m3
303.16 K, 227.3 kPa | 988.6 kg/m3 and 988.5 kg/m3
303.16 K, 227.6 kPa | 988.5 kg/m3 and 988.4 kg/m3 and 988.6 kg/m3
303.16 K, 231.4 kPa | 988.4 kg/m3
303.16 K, 232 kPa | 988.5 kg/m3
303.16 K, 232.1 kPa | 988.5 kg/m3
303.16 K, 232.7 kPa | 988.5 kg/m3
303.16 K, 233.9 kPa | 988.5 kg/m3
303.16 K, 234 kPa | 988.5 kg/m3 and 988.6 kg/m3
303.16 K, 234.2 kPa | 988.5 kg/m3
303.16 K, 234.6 kPa | 988.5 kg/m3
303.16 K, 234.9 kPa | 988.5 kg/m3
303.16 K, 235.4 kPa | 988.6 kg/m3
303.16 K, 235.6 kPa | 988.6 kg/m3
303.16 K, 236 kPa | 988.5 kg/m3
303.16 K, 236.1 kPa | 988.6 kg/m3
303.16 K, 236.3 kPa | 988.5 kg/m3 and 988.6 kg/m3
303.16 K, 236.8 kPa | 988.6 kg/m3 and 988.5 kg/m3
303.16 K, 237.2 kPa | 988.5 kg/m3
303.16 K, 237.5 kPa | 988.6 kg/m3
303.16 K, 237.7 kPa | 988.5 kg/m3
303.16 K, 238 kPa | 988.6 kg/m3 and 988.5 kg/m3
303.16 K, 239.3 kPa | 988.5 kg/m3
303.16 K, 239.4 kPa | 988.5 kg/m3
303.16 K, 240 kPa | 988.5 kg/m3 and 988.6 kg/m3
303.16 K, 240.3 kPa | 988.4 kg/m3
303.16 K, 240.5 kPa | 988.5 kg/m3
303.16 K, 240.8 kPa | 988.5 kg/m3
303.16 K, 241.3 kPa | 988.5 kg/m3
303.16 K, 241.5 kPa | 988.5 kg/m3
303.16 K, 241.7 kPa | 988.5 kg/m3
303.16 K, 242.2 kPa | 988.6 kg/m3
303.16 K, 242.6 kPa | 988.5 kg/m3
303.16 K, 242.7 kPa | 988.6 kg/m3
303.16 K, 242.9 kPa | 988.6 kg/m3
303.16 K, 243.3 kPa | 988.4 kg/m3
303.16 K, 243.4 kPa | 988.5 kg/m3

— the NIST ThermoML archive (doi:10.1021/je060271a)
